# Assay results from ChEMBL document CHEMBL3124838, “Discovery of 6-aryl-azabenzimidazoles that inhibit the TBK1/IKK-ε kinases” (Bioorg Med Chem Lett, 2014).
# Tests used:
# [1] = molecular target: Hepatocyte growth factor receptor (Homo sapiens) (UniProt P08581); assay: Inhibition of human MET assessed as residual activity at 1 uM relative to control
# [2] = molecular target: Serine/threonine-protein kinase PAK 1 (Homo sapiens) (UniProt Q13153); assay: Inhibition of human PAK1 assessed as residual activity at 1 uM relative to control
# Chain of Serine/threonine-protein kinase PAK 1 (Homo sapiens) (Q13153 whole entry): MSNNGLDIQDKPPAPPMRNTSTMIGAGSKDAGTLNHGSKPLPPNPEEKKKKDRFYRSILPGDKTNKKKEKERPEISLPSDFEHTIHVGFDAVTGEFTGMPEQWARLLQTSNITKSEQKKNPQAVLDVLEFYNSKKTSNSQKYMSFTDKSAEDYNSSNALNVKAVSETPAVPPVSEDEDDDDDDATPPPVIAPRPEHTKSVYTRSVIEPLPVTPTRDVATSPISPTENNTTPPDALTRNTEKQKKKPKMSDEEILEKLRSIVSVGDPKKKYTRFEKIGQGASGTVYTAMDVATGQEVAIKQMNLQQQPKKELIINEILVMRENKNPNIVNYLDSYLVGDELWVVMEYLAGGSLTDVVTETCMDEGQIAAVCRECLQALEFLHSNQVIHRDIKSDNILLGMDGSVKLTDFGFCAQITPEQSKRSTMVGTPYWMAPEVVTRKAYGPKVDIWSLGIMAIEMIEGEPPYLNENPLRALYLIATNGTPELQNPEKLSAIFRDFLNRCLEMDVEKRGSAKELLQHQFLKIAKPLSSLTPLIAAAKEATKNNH
# Aurora kinase B = Aurora kinase B (Homo sapiens, UniProt Q96GD4); assay: Inhibition of human Aurora-B assessed as residual activity at 1 uM relative to control
# [3] = molecular target: T1, cGMP-dependent protein kinase 1 (Homo sapiens) (UniProt Q13976); assay: Inhibition of human PKG1alpha assessed as residual activity at 1 uM relative to control
# T1 sequence (whole entry): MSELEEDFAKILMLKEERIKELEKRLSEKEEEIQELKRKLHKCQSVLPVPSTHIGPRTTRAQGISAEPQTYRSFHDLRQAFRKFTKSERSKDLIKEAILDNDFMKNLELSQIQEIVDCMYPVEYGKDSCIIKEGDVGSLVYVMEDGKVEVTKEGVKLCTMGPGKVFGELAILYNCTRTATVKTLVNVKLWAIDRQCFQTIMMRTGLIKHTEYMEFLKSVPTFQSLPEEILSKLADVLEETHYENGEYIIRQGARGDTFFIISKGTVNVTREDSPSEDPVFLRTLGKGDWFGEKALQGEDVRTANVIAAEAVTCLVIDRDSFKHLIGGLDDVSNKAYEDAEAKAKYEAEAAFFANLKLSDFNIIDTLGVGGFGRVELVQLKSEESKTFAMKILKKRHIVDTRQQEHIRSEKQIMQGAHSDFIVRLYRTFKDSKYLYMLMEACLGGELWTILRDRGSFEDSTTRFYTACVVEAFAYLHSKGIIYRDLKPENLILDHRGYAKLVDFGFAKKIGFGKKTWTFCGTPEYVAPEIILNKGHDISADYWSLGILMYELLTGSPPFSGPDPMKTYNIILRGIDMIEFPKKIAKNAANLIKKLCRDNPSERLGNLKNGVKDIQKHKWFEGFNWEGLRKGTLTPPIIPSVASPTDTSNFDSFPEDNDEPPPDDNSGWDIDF
# [4] = molecular target: Tyrosine-protein kinase Lck (Homo sapiens) (UniProt P06239); assay: Inhibition of human activated LCK assessed as residual activity at 1 uM relative to control
# [5] = molecular target: Mitogen-activated protein kinase kinase kinase 9 (Homo sapiens) (UniProt P80192); assay: Inhibition of human MLK1 assessed as residual activity at 1 uM relative to control
# Chain of Mitogen-activated protein kinase kinase kinase 9 (Homo sapiens) (P80192 whole entry, looked up): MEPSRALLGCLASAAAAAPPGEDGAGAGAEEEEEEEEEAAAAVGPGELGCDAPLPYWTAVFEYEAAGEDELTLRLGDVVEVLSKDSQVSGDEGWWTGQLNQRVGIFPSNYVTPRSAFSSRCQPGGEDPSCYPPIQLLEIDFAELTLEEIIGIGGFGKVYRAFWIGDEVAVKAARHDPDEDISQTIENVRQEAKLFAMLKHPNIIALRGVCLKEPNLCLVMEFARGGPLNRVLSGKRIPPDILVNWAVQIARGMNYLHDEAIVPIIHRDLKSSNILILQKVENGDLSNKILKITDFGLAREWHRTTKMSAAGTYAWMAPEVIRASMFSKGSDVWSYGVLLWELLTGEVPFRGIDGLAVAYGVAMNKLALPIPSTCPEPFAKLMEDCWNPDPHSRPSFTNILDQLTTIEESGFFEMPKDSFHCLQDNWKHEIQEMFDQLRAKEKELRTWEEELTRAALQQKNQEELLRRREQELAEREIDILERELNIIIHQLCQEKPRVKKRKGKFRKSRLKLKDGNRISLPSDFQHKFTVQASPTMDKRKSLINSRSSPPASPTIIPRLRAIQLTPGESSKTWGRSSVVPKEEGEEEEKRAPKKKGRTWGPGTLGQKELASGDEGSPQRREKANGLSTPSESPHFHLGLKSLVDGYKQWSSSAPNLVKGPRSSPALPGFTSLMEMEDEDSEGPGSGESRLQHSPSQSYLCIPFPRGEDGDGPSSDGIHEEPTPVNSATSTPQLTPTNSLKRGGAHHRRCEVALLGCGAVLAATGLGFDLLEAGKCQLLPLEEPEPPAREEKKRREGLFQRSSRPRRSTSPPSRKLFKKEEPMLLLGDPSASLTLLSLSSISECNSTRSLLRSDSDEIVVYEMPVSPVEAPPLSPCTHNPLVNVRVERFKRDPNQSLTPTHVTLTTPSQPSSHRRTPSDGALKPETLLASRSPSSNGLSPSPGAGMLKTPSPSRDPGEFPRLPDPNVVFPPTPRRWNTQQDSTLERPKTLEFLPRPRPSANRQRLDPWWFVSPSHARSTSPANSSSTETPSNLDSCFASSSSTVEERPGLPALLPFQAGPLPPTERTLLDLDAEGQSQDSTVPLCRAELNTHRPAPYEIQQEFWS
# [6] = molecular target: Insulin receptor-related protein (Homo sapiens) (UniProt P14616); assay: Inhibition of human IRR assessed as residual activity at 1 uM relative to control
# [7] = molecular target: T2, Phosphatidylinositol 5-phosphate 4-kinase type-2 alpha (Homo sapiens) (UniProt P48426); assay: Inhibition of human PIP4K2alpha assessed as residual activity at 1 uM relative to control
# T2 sequence (whole entry): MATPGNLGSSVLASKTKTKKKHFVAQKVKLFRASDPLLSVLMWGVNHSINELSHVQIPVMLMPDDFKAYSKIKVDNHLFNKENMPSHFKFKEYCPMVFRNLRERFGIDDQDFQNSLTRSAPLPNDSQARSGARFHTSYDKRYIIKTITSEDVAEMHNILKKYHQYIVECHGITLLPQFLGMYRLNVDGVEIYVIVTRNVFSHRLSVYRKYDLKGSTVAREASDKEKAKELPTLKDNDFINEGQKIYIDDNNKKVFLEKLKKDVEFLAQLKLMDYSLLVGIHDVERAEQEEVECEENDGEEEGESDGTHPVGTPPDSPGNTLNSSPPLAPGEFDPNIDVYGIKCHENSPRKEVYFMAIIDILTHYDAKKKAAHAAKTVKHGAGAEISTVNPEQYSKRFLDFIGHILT
# [8] = molecular target: MAP kinase-interacting serine/threonine-protein kinase 2 (Homo sapiens) (UniProt Q9HBH9); assay: Inhibition of human MNK2 assessed as residual activity at 1 uM relative to control
# [9] = molecular target: T3, NUAK family SNF1-like kinase 1 (Homo sapiens) (UniProt O60285); assay: Inhibition of human ARK5 assessed as residual activity at 1 uM relative to control
# T3 sequence (whole entry): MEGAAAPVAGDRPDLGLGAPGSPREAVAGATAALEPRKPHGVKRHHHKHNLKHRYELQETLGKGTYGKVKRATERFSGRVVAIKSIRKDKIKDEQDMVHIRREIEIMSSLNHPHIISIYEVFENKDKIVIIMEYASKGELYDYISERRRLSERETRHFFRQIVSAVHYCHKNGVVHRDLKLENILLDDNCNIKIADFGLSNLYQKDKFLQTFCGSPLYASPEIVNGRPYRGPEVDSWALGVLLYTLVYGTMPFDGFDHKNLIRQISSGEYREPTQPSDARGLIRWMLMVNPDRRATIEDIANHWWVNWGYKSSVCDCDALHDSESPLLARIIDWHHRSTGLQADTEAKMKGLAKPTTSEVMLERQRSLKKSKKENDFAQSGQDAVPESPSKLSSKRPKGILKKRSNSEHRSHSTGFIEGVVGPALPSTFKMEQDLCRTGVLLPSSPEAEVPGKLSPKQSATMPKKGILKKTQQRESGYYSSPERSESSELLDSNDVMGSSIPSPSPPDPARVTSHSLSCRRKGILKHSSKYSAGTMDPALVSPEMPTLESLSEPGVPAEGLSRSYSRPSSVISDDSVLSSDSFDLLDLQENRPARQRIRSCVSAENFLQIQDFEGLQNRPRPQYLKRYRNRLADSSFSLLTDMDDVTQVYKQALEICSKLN
# [10] = molecular target: Ribosomal protein S6 kinase alpha-1 (Homo sapiens) (UniProt Q15418); assay: Inhibition of human RSK1 assessed as residual activity at 1 uM relative to control
# [11] = molecular target: Casein kinase I isoform gamma-1 (Homo sapiens) (UniProt Q9HCP0); assay: Inhibition of human CK1gamma1 assessed as residual activity at 1 uM relative to control
# [12] = molecular target: Tyrosine-protein kinase ABL2 (Homo sapiens) (UniProt P42684); assay: Inhibition of human ARG assessed as residual activity at 1 uM relative to control
# [13] = molecular target: Serine/threonine-protein kinase 10 (Homo sapiens) (UniProt O94804); assay: Inhibition of human LOK assessed as residual activity at 1 uM relative to control
# Chain of Serine/threonine-protein kinase 10 (Homo sapiens) (O94804 whole entry, looked up): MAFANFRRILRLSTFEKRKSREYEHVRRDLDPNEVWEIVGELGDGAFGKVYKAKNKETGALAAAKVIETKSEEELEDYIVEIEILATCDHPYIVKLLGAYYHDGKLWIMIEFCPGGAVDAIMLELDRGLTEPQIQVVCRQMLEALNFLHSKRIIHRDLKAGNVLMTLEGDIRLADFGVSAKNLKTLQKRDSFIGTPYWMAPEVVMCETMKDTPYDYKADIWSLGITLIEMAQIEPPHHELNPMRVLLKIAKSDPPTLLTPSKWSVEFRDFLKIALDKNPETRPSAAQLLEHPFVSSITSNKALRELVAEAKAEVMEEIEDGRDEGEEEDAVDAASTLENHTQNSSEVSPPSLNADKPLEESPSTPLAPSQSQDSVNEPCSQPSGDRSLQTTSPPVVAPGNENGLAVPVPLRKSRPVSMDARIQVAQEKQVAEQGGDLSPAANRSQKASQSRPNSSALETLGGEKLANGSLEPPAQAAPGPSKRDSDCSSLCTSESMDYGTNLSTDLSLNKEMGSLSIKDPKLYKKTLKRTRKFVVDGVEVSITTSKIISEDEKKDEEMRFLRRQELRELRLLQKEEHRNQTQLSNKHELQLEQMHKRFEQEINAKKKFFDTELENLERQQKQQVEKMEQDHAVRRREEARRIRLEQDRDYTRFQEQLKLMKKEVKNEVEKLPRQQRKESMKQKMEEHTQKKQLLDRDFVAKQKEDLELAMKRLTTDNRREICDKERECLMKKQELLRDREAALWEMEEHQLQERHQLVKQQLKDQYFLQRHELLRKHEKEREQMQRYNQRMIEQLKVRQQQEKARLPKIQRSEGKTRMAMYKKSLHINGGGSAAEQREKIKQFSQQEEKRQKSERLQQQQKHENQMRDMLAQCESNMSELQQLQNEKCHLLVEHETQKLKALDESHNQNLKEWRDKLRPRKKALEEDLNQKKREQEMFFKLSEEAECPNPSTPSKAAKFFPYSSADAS
# [14] = system: Proto-oncogene tyrosine-protein kinase receptor Ret (Homo sapiens), P07949 [V804M]; assay: Inhibition of human RET V804M mutant assessed as residual activity at 1 uM relative to control
# Chain of Proto-oncogene tyrosine-protein kinase receptor Ret (Homo sapiens), P07949 [V804M] (P07949 whole entry V804M): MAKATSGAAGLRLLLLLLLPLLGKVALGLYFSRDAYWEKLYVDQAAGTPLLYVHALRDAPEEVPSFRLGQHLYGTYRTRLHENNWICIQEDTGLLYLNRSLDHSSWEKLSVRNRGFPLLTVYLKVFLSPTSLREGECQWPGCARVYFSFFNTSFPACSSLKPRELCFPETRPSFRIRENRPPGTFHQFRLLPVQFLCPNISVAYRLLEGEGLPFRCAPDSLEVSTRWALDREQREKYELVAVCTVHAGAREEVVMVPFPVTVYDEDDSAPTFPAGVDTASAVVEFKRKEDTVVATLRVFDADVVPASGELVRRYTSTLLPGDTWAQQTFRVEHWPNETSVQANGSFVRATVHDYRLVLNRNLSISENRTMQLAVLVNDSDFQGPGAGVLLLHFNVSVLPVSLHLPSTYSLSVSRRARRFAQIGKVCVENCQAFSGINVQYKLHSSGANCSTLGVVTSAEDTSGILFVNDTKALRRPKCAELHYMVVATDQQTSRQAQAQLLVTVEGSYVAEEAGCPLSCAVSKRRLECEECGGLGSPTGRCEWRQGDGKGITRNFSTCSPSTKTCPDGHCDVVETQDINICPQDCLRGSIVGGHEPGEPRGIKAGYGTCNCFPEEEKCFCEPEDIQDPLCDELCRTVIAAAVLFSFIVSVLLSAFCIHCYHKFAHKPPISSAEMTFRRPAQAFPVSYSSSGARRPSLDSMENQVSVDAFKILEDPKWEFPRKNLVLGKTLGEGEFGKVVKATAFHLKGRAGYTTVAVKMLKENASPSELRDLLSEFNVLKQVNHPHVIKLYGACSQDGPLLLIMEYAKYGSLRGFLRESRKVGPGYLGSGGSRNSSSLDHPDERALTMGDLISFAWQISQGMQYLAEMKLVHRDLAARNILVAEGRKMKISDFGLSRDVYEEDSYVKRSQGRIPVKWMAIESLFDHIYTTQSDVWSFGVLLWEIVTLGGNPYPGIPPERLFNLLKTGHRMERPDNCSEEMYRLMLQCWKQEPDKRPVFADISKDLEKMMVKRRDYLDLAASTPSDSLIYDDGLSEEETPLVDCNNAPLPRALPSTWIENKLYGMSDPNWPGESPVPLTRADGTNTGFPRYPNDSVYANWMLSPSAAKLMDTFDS
# Chain of Hepatocyte growth factor receptor (Homo sapiens) (P08581 whole entry): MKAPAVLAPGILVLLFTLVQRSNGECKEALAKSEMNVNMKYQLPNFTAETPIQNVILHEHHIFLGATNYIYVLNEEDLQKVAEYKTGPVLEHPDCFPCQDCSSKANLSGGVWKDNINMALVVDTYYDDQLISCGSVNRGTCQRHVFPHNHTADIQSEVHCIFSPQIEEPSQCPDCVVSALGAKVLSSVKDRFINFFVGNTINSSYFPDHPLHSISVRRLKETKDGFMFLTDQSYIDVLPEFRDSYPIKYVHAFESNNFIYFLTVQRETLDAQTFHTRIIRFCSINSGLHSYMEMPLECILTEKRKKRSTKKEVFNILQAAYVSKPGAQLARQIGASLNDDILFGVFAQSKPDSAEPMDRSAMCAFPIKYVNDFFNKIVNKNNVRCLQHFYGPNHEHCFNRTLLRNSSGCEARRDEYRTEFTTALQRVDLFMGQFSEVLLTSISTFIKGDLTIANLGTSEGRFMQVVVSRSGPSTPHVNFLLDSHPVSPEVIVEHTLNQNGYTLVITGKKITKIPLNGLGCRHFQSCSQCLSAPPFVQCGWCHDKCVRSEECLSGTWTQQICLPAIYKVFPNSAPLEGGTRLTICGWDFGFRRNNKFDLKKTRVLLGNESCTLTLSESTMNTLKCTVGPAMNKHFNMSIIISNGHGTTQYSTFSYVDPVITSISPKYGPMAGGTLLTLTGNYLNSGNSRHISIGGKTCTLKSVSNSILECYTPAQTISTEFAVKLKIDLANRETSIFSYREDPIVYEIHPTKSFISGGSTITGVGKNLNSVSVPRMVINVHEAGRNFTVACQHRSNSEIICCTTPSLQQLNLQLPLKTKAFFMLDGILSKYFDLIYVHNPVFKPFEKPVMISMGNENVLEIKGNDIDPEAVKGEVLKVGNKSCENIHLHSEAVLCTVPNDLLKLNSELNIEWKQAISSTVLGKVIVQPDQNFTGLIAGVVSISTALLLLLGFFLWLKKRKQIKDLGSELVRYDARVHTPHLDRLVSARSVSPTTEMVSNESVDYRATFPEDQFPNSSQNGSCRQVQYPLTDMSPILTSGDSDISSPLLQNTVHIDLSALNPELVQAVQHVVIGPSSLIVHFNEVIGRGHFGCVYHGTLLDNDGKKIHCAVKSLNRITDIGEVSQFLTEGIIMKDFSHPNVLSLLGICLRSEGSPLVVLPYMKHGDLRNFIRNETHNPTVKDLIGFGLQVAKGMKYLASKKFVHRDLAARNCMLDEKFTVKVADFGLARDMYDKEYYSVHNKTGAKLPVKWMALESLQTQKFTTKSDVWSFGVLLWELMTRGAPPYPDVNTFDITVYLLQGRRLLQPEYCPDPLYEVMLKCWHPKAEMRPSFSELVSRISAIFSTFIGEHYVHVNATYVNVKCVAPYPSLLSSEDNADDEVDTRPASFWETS
Activity [1],Activity [2],Activity (Aurora kinase B),Activity [3],Activity [4],Activity [5],Activity [6],Activity [7],Activity [8],Activity [9],Activity [10],Activity [11],Activity [12],Activity [13],Activity [14],SMILES
111%,96%,78%,67%,47%,23%,80%,95%,1%,76%,76%,29%,52%,97%,9%,COc1ccc(-c2nc3cc(-c4csc(C(=O)NCCC(C)C)c4)cnc3[nH]2)cc1
114%,94%,75%,68%,71%,37%,70%,87%,5%,79%,73%,65%,60%,102%,24%,COc1ccc(-c2nc3cc(-c4csc(C(=O)NCC(C)(C)C)c4)cnc3[nH]2)cc1
107%,105%,43%,69%,56%,30%,92%,85%,4%,68%,63%,44%,38%,100%,15%,COc1ccc(-c2nc3cc(-c4csc(C(=O)NCC(C)C)c4)cnc3[nH]2)cc1
